Entries after “also recorded” stand apart in the source; their conditions may differ.
Assay: Qualitative solubility in water and organic solvents
Type: physicochemical
Conditions: for solubility in methanol: compared to octadecadiynyl analogues 12 and 3; for solubility in organic solvents: organic solvents like CHCl3, CH2Cl2 (and DMF)
From the text: Thus self-aggregation behavior of 3 has not been investigated. To increase the polar character and to improve the water-solubility of such a bis-biotinated derivative, the [5:1]-hexakisadduct 13 with five ethyl malonate addends instead of the five octadecadiynyl malonates was synthesized (FIG. 2). To overcome the general problem of separating the desired hexakisadducts from other adducts formed simultaneously upon the exhaustive cyclopropanation step the sequence of addition steps was reversed in this case. For this purpose the cherry-red C2v-symmetrical [5:0]-pentakisadduct 14^[14] was prepared and used as starting material. The subsequent cyclopropanation reaction with the Boc-protected spacer malonate 8 to complete the C2v-symmetrical octahedral addition pattern afforded the bright-yellow N-Boc-protected [5:1]-hexakisadduct 15 in 63% yield after FC and HPLC purification. After cleavage of the Boc-protecting groups with TFA/CH2Cl2 the bis-amino amphifullerene 16 was obtained in quantitative yield. […]
The characterization of the protected dipeptide hexakisadduct precursors 45 and 46 as well as the free dipeptide hexakisadducts 47 and 48 succeeded by IR-, UV-, ^1H and ^13C NMR and by FAB mass spectroscopy.
The synthesis of a series of mixed amphiphilic hexakisadducts of C60 with an octahedral addition pattern is now described. The new [5:1]-hexakisadduct 3 involving five non-polar long chain malonate addends and one polar addend with two biotin termini is insoluble in water. As a consequence it cannot be used for the investigation of superstructures in aqueous solution. However, it represents an attractive building block for a potential co-surfactant aided assembly to mixed micelles or liposomes. The spacer carrying the biotin termini was designed in a way that it can protrude through a layer of assembled lipid molecules such as DPPC. This in principle makes it available for targeting of micelles and liposomes via avidin mediated binding of label molecules. This is believed to be the first report of the synthesis of amphiphilic [3:3]-hexakisadducts of C60. The key for the very facile access to these aesthetically pleasing molecules is the easy synthesis of the e,e,e-trisadduct 18, which can be prepared in one step from the highly regioselective addition of cyclo-[3]-octylmalonate 17. The remaining three octahedral sites are available for the attachment of three ionic or neutral polar addends. As termini carboxy, amino and peptide moieties were used. This allows for the introduction of a tunable number of positive or negative charges within the polar groups by pH-variation. In a few cases preliminary investigations on the self-assembly using cryo-TEM and PGSE-NMR have been carried out. It has been shown that the solubility and self-assembly properties depend on the number of ionic charges and therefore on the pH value. These are very favourable opportunities for the controlled encapsulation and release of non-polar guest molecules making such amphiphilic fullerenes interesting candidates for drug delivery systems. Extensive investigations on the aggregation and inclusion properties of amphiphilic [3:3]-hexakisadducts of C60 are currently under way.

Row | solubility in methanol | solubility in organic solvents | Substance | self-assembly in water | solubility in water
1 | enhanced solubility | appreciable solubility | 1,2-{Bis-(14-[3-{2-(2-[Aminopropoxy]-ethoxy)-ethoxy}-propyl]carbamoyl-tetradecyloxycarbonyl)-methano}-18,36:22,23:27,45:31,32:55,60-pentakis-{ethyloxycarbonyl)-methano}-1,2:18,36:22,23:27,45:31,32:55,60-dihydro[60]fullerene [compound 16] | – | –
2 | – | Acceptable solubility | 1,2-{Bis-(14-[3-{2-(2-[N-Biotinyl-aminopropoxy]-ethoxy)-ethoxy}-propyl]-carbamoyltetradecyloxycarbonyl)-methano}-18,36:22,23:27,45:31,32:55,60-pentakis-{di(10,12-octadecadiynyloxycarbonyl)-methano}-1,2:18,36:22,23:27,45:31,32:55,60-dihydro[60]fullerene [compound 3] | inappropriate to form self-assemblies in water | only soluble in the presence of a co-solvent like methanol; also recorded: water-insoluble
3 | enhanced solubility | appreciable solubility | 1,2-{Bis-(14-[3-{2-(2-[N-Biotinyl-aminopropoxy]ethoxy)-ethoxy}-propyl]-carbamoyl-tetradecyloxycarbonyl)-methano}-18,36:22,23:27,45:31,32:55,60-pentakis-{ethyloxycarbonyl)-methano}1,2:18,36:22,23:27,45:31,32:55,60-dihydro-[60]fullerene [compound 13] | inappropriate to form self-assemblies in water | water-insoluble
